Columns and labels:
[1] = tested on: MV4-11; experiment: cells; set-up: species or system AML cell lines (8); Secondary HTS, 10-point dose-response in triplicate, Cell Titer Glo viability, four-parameter fit EC50; conditions: Homo sapiens, MV4-11, 72 h, read-out: MV4-11
[2] = tested on: M07e; experiment: cells; set-up: species or system AML cell lines (8); Secondary HTS, 10-point dose-response in triplicate, Cell Titer Glo viability, four-parameter fit EC50; conditions: M-07e, 72 h, read-out: M07e
[3] = tested on: CMS; experiment: cells; set-up: species or system AML cell lines (8); Secondary HTS, 10-point dose-response in triplicate, Cell Titer Glo viability, four-parameter fit EC50; conditions: 72 h, read-out: CMS
[4] = tested on: MOLM-13; experiment: cells; set-up: species or system AML cell lines (8); Secondary HTS, 10-point dose-response in triplicate, Cell Titer Glo viability, four-parameter fit EC50; conditions: Homo sapiens, MOLM-13, 72 h, read-out: MOLM-13
[5] = tested on: ML-2; experiment: cells; set-up: species or system AML cell lines (8); Secondary HTS, 10-point dose-response in triplicate, Cell Titer Glo viability, four-parameter fit EC50; conditions: Homo sapiens, ML-2, 72 h, read-out: ML-2
[6] = tested on: CHRF288-11; experiment: cells; set-up: species or system AML cell lines (8); Secondary HTS, 10-point dose-response in triplicate, Cell Titer Glo viability, four-parameter fit EC50; conditions: 72 h, read-out: CHRF288-11
[7] = tested on: U937; experiment: cells; set-up: species or system AML cell lines (8); Secondary HTS, 10-point dose-response in triplicate, Cell Titer Glo viability, four-parameter fit EC50; conditions: Homo sapiens, U-937, 72 h, read-out: U937
[8] = tested on: CMK; experiment: Secondary dose-response HTS, Cell Titer Glo; assay type: cell-based, human; conditions: Homo sapiens, CMK, read-out: average effective concentration, CMK
[9] = tested on: MV4-11; experiment: Secondary dose-response HTS, Cell Titer Glo; assay type: cell-based, human; conditions: Homo sapiens; secondary high-throughput screen; MV4-11; read-out: average effective concentration, MV4-11
[10] = tested on: MOLM-13; experiment: Secondary dose-response HTS, Cell Titer Glo; assay type: cell-based, human; conditions: Homo sapiens; secondary high-throughput screen; MOLM-13; read-out: average effective concentration, MOLM-13
[11] = tested on: U937; experiment: Secondary dose-response HTS, Cell Titer Glo; assay type: cell-based, human; conditions: Homo sapiens
[12] = tested on: CHRF288-11; experiment: Secondary dose-response HTS, Cell Titer Glo; assay type: cell-based, human; conditions: Homo sapiens, HTS; secondary high-throughput screen; CHRF288-11; read-out: average effective concentration, CHRF288-11
[13] = tested on: CMS; experiment: Secondary dose-response HTS, Cell Titer Glo; assay type: cell-based, human; conditions: Homo sapiens, HTS, read-out: average effective concentration, CMS
[14] = tested on: M07e; experiment: Secondary dose-response HTS, Cell Titer Glo; assay type: cell-based, human; conditions: Homo sapiens, M-07e; secondary high-throughput screen; M07e; read-out: average effective concentration, M07e
[15] = tested on: CMK; experiment: cells; set-up: species or system AML cell lines (8); Secondary HTS, 10-point dose-response in triplicate, Cell Titer Glo viability, four-parameter fit EC50; conditions: Homo sapiens, CMK, 72 h, read-out: CMK
[16] = tested on: ML2; experiment: Secondary dose-response HTS, Cell Titer Glo; assay type: cell-based, human; conditions: Homo sapiens; secondary high-throughput screen; ML-2; read-out: average effective concentration, ML-2
[17] = tested on: U937; set-up: species or system AML cell lines (8); Primary HTS, single concentration about 10 uM, Cell Titer Glo viability; log10 luminescence, per cent inhibition relative to cycloheximide control; conditions: 72 h, relative to cycloheximide control, log10 luminescence; inhibitor
[18] = tested on: CMK; set-up: species or system AML cell lines (8); Primary HTS, single concentration about 10 uM, Cell Titer Glo viability; log10 luminescence, per cent inhibition relative to cycloheximide control; conditions: 72 h, relative to cycloheximide control, log10 luminescence; inhibitor
[19] = tested on: CMS; set-up: species or system AML cell lines (8); Primary HTS, single concentration about 10 uM, Cell Titer Glo viability; log10 luminescence, per cent inhibition relative to cycloheximide control; conditions: 72 h, relative to cycloheximide control, log10 luminescence; inhibitor
[20] = tested on: MOLM-13; set-up: species or system AML cell lines (8); Primary HTS, single concentration about 10 uM, Cell Titer Glo viability; log10 luminescence, per cent inhibition relative to cycloheximide control; conditions: 72 h, relative to cycloheximide control, log10 luminescence; inhibitor
[21] = tested on: M07e; set-up: species or system AML cell lines (8); Primary HTS, single concentration about 10 uM, Cell Titer Glo viability; log10 luminescence, per cent inhibition relative to cycloheximide control; conditions: 72 h, relative to cycloheximide control, log10 luminescence; inhibitor
[22] = tested on: ML-2; set-up: species or system AML cell lines (8); Primary HTS, single concentration about 10 uM, Cell Titer Glo viability; log10 luminescence, per cent inhibition relative to cycloheximide control; conditions: 72 h, relative to cycloheximide control, log10 luminescence; inhibitor
[23] = tested on: CHRF288-11; set-up: species or system AML cell lines (8); Primary HTS, single concentration about 10 uM, Cell Titer Glo viability; log10 luminescence, per cent inhibition relative to cycloheximide control; conditions: 72 h, relative to cycloheximide control, log10 luminescence; inhibitor
[24] = tested on: MV4-11; set-up: species or system AML cell lines (8); Primary HTS, single concentration about 10 uM, Cell Titer Glo viability; log10 luminescence, per cent inhibition relative to cycloheximide control; conditions: 72 h, relative to cycloheximide control, log10 luminescence; inhibitor
[25] = secondary high-throughput screen
[26] = U-937, secondary high-throughput screen, U937, read-out: average effective concentration, U937

| EC50 [1] [µM] | EC50 [4] [µM] | EC50 [7] [µM] | Compound | EC50 [2] [µM] | EC50 [3] [µM] | EC50 [5] [µM] | EC50 [6] [µM] | other results |
| --- | --- | --- | --- | --- | --- | --- | --- | --- |
|  |  | > 10 | COc1cc(CCc2cc(NC(=O)c3ccc(N4C[C@@H](C)N[C@@H](C)C4)cc3)n[nH]2)cc(OC)c1 [AZD4547] | > 10 | > 10 | > 10 | > 10 |  |
| > 10 | 0.19 | > 10 | Nc1nccc2c1ncn2[C@@H]1C=C(CO)[C@@H](O)[C@H]1O [SJ000785904, 3-DEAZANEPLANOCIN] | 0.001 | > 10 | > 10 | 1.8 |  |

More lines, now with the values behind:

| Compound | EC50 [1] [µM] | EC50 [4] [µM] | EC50 [7] [µM] | EC50 [2] [µM] | EC50 [3] [µM] | EC50 [5] [µM] | EC50 [6] [µM] | other results |
| --- | --- | --- | --- | --- | --- | --- | --- | --- |
| N[C@@H]1C[C@H]1c1ccccc1 (racemic) [SJ000286124, TRANYLCYPROMINE] | > 10 | > 10 | > 10 | > 10 | > 10 | > 10 | > 10 |  |
| CC(=O)O[C@H]1CC[C@@]2(C)C(=CC[C@@H]3[C@@H]2CC[C@]2(C)C(c4cccnc4)=CC[C@@H]32)C1 [ABIRATERONE ACETATE] | > 10 | > 10 | > 10 | > 10 | > 10 | > 10 | > 10 | EC50 [8, 25]: 5.3 µM |
| COc1cc2nccc(Oc3ccc(NC(=O)C4(C(=O)Nc5ccc(F)cc5)CC4)cc3)c2cc1OC [CABOZANTINIB] |  |  | > 10 | > 10 | > 10 | > 10 | > 10 | EC50 [9]: 0.001 µM; EC50 [10]: 0.05 µM; EC50 [8, 25]: 7.3 µM |
| CC(C)C[C@H](NC(=O)[C@H](CCc1ccccc1)NC(=O)CN1CCOCC1)C(=O)N[C@@H](Cc1ccccc1)C(=O)N[C@@H](CC(C)C)C(=O)[C@@]1(C)CO1 [Carfilzomib] |  |  |  |  |  | 0.0029 |  |  |
| Nc1nc(Cl)nc2c1ncn2[C@@H]1O[C@H](CO)[C@@H](O)[C@@H]1F [Clofarabine, clofarabine] |  |  |  |  |  | 0.125 |  |  |
| Nc1ncn([C@H]2C[C@H](O)[C@@H](CO)O2)c(=O)n1 [DECITABINE] | 9.6 |  |  | > 10 | > 10 | > 10 |  | EC50 [11, 26]: 0.31 µM; EC50 [12]: 7 µM; EC50 [10]: 0.001 µM; EC50 [8, 25]: 4.3 µM |
| CC(=O)O[C@@]12CO[C@@H]1C[C@H](O)[C@@]1(C)C(=O)[C@H](O)C3=C(C)[C@@H](OC(=O)[C@H](O)[C@@H](NC(=O)OC(C)(C)C)c4ccccc4)C[C@@](O)([C@@H](OC(=O)c4ccccc4)[C@H]21)C3(C)C [Docetaxel, docetaxel] |  |  |  |  |  | > 10 |  |  |
| CCOc1ccccc1-n1c(C(C)N2CCN(C(=O)COc3ccc(Cl)cc3)CC2)nc2ccccc2c1=O (stereo not shown) [ERASTIN] | > 10 | > 10 | > 10 |  |  |  |  | EC50 ([13]; secondary high-throughput screen, CMS): 9.5 µM; EC50 [14]: 7.5 µM; EC50 [12]: 0.19 µM; EC50 [15]: > 10 µM; EC50 [16]: 0.54 µM |
| NC(=O)c1ccc(I)c([N+](=O)[O-])c1 [INIPARIB] | > 10 |  | > 10 | > 10 | > 10 | > 10 | > 10 | EC50 [10]: > 10 µM |
| C=CC(=O)N1CCC[C@@H](n2nc(-c3ccc(Oc4ccccc4)cc3)c3c(N)ncnc32)C1 [Ibrutinib] |  |  |  | > 10 |  | > 10 | > 10 |  |
| O=C(O)CNC(=O)C(=O)O [N-OXALYLGLYCINE] | > 10 |  |  | > 10 | > 10 | > 10 | > 10 | EC50 [11, 26]: 3.3 µM; EC50 [10]: 2.3 µM |
| CC(=O)c1c(C)c2cnc(Nc3ccc(N4CCNCC4)cn3)nc2n(C2CCCC2)c1=O [Palbociclib] | > 10 | > 10 |  | > 10 |  | > 10 | > 10 |  |
| CS(=O)(=O)N1CCN(Cc2cc3nc(-c4cccc5[nH]ncc45)nc(N4CCOCC4)c3s2)CC1 [Pictilisib] | > 10 | > 10 | > 10 | > 10 | > 10 | > 10 | > 10 |  |
| Cn1cc(CNCC2CCN(c3ncc(C(=O)NO)cn3)CC2)c2ccccc21 [Quisinostat] |  |  | 0.0052 | 0.0042 |  | 0.00387 |  |  |
| Nc1ncnc2c1ncn2[C@@H]1C=C(CO)[C@@H](O)[C@H]1O [SJ000784248, NEPLANOCIN A] | > 10 | 0.36 | 1.1 | > 10 | > 10 | 5.8 | 6.5 |  |
| CN(C)C1CCN(C(=O)c2ccc(NC(=O)Nc3ccc(-c4nc(N5CCOCC5)nc(N5CCOCC5)n4)cc3)cc2)CC1 [SJ000784327, PF-05212384] |  |  |  | > 10 | > 10 | > 10 | > 10 |  |
| N[C@@H]1C[C@H]1c1cc(F)cc(F)c1OCc1ccccc1 [SJ000785902, S2101] | > 10 | > 10 | > 10 | > 10 | > 10 | > 10 | > 10 |  |
| COc1cc(C)c2c(Oc3cccc(C(F)(F)F)c3)c(OC)cc(NC(C)CCCN)c2n1 (stereo not shown) [TAFENOQUINE] | > 10 | > 10 |  |  |  |  |  | EC50 [11, 26]: > 10 µM; EC50 [13]: > 10 µM; U937 %inh [17]: 46.41%; EC50 [14]: > 10 µM; CMK %inh [18]: 107.9%; EC50 [12]: > 10 µM; CMS %inh [19]: 39.64%; MOLM-13 %inh [20]: 98.6%; M07e %inh [21]: 38.9%; EC50 [15]: > 10 µM; ML-2 %inh [22]: 62.38%; CHRF288-11 %inh [23]: 134.8%; MV4-11 %inh [24]: 34.4%; EC50 [16]: > 10 µM |
| Cn1cncc1[C@@](N)(c1ccc(Cl)cc1)c1ccc2c(c1)c(-c1cccc(Cl)c1)cc(=O)n2C [TIPIFARNIB] | > 10 | > 10 |  | > 10 | > 10 | > 10 | > 10 | EC50 ([11]; U-937, read-out: average effective concentration, U937): 0.54 µM; EC50 [8]: 1.4 µM |
| COc1cc2c(Nc3ccc(Br)cc3F)ncnc2cc1OCC1CCN(C)CC1 [VANDETANIB] | > 10 |  | > 10 | > 10 | > 10 | > 10 | > 10 | EC50 [10]: 10 µM; EC50 [8]: 5.8 µM |
